Measurements reported in US20260176275A1, “VINYLPHOSPHONIC ACID-MODIFIED MRNA CAP ANALOG, METHOD FOR PREPARING SAME, AND USE THEREOF” (Jiangsu Synthgene Biotechnology Co., Ltd., priority 2022, published 2026).

Columns and labels:
[1] = biological target: T1, T7 RNA polymerase (Escherichia phage T7, UniProt P00573); assay: mRNA in-vitro transcription yield with cap analog (T7 IVT, Nanodrop One quantification); format: biochemical; settings: for Yield: mRNA from 20 μL IVT system, 1 μl 100 mM cap analog, 1 μg template, 37° C. 2 h; for in-vitro transcription yield compared with Comparative Example 1 (in words): text summary of Table 4
Experimental: (§1) In-vitro synthesis of mRNA cap analogs modified with vinylphosphonic acid: Firstly, a plasmid was linearized with NotI and digested at […] overnight. A DNA template was extracted. mRNAs were synthesized by in-vitro transcription using the vinylphosphonic acid-modified mRNA cap analogs of Examples 1-7 and compounds 10-13, 16, 17, 25, 31 and 34, and the cap analog of Comparative Example 1 as cap structures, respectively.
(§2) Note: During the experiment, the volume of the materials required for the system was calculated firstly, and then sample loading was performed. Firstly, sterile enzyme-free water was added into the system, and then 10× buffer, NTPs, and the cap analog were sequentially added. The mixture was uniformly mixed and then gently centrifuged, followed by addition of the nuclease inhibitor, the inorganic pyrophosphatase, the T7 RNA polymerase, and the linearized DNA template. The mixture was well mixed, then gently centrifuged, and incubated at 37° C. After 2 h, DNase I (1 U) was added, and the mixture was incubated at 37° C. for another 30 min to remove the DNA template. RNA purification was then performed (usually using the magnetic bead purification method). The purified mRNA was dissolved in sterile enzyme-free water, and then quantitative detection was performed by using Nanodrop One.

[2] = biological target: T1, T7 RNA polymerase; assay: IVT capping rate of mRNA by LC-MS after RNase H cleavage; format: biochemical; settings: for Capping rate: LC-MS of mRNA transcribed with the cap analog; for capping efficiency compared with Comparative Example 1 (in words): text summary of Table 4
Experimental: as §1, §2
Liquid chromatography-mass spectrometry (LC-MS) was used to detect the IVT capping rates of mRNAs with different starting cap analogs. Firstly, a labeled (usually biotin-labeled) DNA probe matched with the starting base of mRNA as the transcript product was required to be designed, and streptavidin-labeled magnetic beads were washed, and then incubated with the synthesized DNA probe, mRNA and 10× RNase H reaction buffer with slowly mixing at room temperature for 30 min. 20 L of RNase H (5 U/μL) was then added, and the mixture was incubated at 37° C. for 3 h, with uniform mixing every half hour. After the incubation was completed, the magnetic beads were cleaned, and then 100 μL of 75% methanol heated to 80° C. was added to the cleaned magnetic beads. The mixture was heated to 80° C. on a heating plate, held for 3 min, and then placed on a magnetic rack. The supernatant was pipetted and dried at room temperature for 45 min to 10 Lby using an evaporation centrifuge. The sample was then resuspended in 50 μL of 100 μM EDTA/1% MeOH for LC-MS analysis to determine the capping of RNA in the transcription reaction. Due to the significant difference in molecular weight between capped and uncapped bases, the capping rates of mRNA transcription initiated with different cap analogs can be determined by using the difference in molecular weight.

[3] = biological target: eukaryotic initiation factor (elF4E) (Homo sapiens, UniProt P06730); assay: Assay of binding ability to eukaryotic initiation factor (elF4E), Biacore T100; settings: for Kd: cap analog to elF4E protein, running buffer pH 6.0 or 7.4, read-out: Binding constant (converted)
Experimental: Test method: Firstly, experimental samples, including the cap analog samples of Examples 1-7, compounds 10-13, 16, 17, 25, 31 and 34, and Comparative Example 1, were diluted with a running buffer (50 mM phosphate, 100 mM sodium chloride, and 0.01% vol/vol Tween 20, pH 6.0 or 7.4). The sample injection time was […], the sample injection flow rate was 20 L/min, and the dissociation time was […]. The residual samples were eluted with a regeneration buffer (10 mM HEPES, 150 mM NaCl, and 0.010% vol/vol Tween 20, pH 7.4) for 30 s at a flow rate of 30 μL/min. Finally, through analysis by Biacore T100 evaluation software (version 2.0.2), sensorgrams were generated and the binding constants were calculated.

[4] = system: 293T cells; assay: mRNA translation efficiency: eGFP mRNA capped with the analogs transfected into 293T cells, GFP fluorescence; format: cell-based; settings: summary of Table 6
Experimental: Test method: In-vitro transcription was initiated with the cap analogs of Examples 1-7, compounds 10-13, 16, 17, 25, 31 and 34, and Comparative Example 1 by using an eGFP coding sequence as a DNA template. The different mRNA products obtained were then transfected into 293T cells. The 293T cells were plated (onto a 24-well plate) at (0.5-1)×10^5 cells/well. During the transfection, in general, the cell density was preferably 60%-80%; […] was transfected into each well, and the Lipofectamine MessengerMAX Transfection Reagent (Invitrogen) was selected as the transfection reagent and used according to its usage instructions. The transfected cells were placed in an incubator at 37° C. with CO2. After transfection for 4-6 h, the medium was replaced with a fresh complete medium. After incubation in the incubator at 37° C. with CO2 for 24 h, the fluorescence intensity of GFPs in the cells was observed through a fluorescence microscope, and the fluorescence intensity ratios of Examples 1-7 and compounds 10-13, 16, 17, 25, 31 and 34 relative to Comparative Example 1 were calculated based on the fluorescence intensities.

T1 sequence (P00573 whole entry): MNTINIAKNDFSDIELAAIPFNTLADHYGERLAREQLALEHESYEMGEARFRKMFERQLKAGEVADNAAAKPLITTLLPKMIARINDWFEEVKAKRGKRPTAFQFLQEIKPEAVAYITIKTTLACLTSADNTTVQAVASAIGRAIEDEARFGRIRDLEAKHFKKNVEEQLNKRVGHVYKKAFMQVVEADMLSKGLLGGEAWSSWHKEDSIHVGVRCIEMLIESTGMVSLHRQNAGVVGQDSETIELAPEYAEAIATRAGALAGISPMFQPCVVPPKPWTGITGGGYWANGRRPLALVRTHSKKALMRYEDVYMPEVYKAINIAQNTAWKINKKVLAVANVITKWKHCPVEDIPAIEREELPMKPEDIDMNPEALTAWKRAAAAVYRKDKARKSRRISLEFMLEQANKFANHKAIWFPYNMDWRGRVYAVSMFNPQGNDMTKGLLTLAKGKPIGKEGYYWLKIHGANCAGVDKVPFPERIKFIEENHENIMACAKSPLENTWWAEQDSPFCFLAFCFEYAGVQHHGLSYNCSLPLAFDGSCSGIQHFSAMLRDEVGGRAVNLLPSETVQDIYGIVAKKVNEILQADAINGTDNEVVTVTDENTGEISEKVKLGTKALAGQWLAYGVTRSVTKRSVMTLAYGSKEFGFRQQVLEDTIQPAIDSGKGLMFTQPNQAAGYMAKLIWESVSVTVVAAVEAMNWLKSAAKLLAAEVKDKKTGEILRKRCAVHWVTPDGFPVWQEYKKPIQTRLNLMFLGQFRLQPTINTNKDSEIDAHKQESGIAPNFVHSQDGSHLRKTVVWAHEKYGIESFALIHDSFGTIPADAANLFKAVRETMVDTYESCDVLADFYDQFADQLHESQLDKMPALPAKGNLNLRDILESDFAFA
Sequence of eukaryotic initiation factor (elF4E) (P06730 whole entry): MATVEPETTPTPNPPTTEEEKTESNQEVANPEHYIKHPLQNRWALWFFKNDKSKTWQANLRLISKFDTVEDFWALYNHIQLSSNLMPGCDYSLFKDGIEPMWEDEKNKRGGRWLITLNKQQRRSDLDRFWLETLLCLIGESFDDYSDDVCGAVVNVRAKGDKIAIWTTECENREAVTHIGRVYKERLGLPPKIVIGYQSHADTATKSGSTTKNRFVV

Structure (SMILES): COC1C(OP(=O)(O)OC[C@H]2O[C@@H](n3cnc4c(=O)[nH]c(N)nc43)C(O)C2O)[C@@H](COP(=O)(O)OP(=O)(O)OP(=O)(O)/C=C/[C@H]2O[C@@H](n3c[n+](C)c4c(=O)[nH]c(N)nc43)C(O)C2O)O[C@H]1n1cnc2c(N)ncnc21 (stereo partly shown) [Example 2]
- Yield [1]: 125 µg
- Capping rate [2]: 96.3%
- Kd [3]: 216 nM

Structure (SMILES): COC1C(OP(=O)(O)OC[C@H]2O[C@@H](n3cnc4c(=O)[nH]c(N)nc43)C(O)C2O)[C@@H](/C=C/P(=O)(O)OP(=O)(O)OP(=O)(O)OC[C@H]2O[C@@H](n3c[n+](C)c4c(=O)[nH]c(N)nc43)C(O)C2O)O[C@H]1n1cnc2c(N)ncnc21 (stereo partly shown) [Example 3]
- Yield [1]: 122 µg
- Capping rate [2]: 95.3%
- Kd [3]: 240 nM

Structure (SMILES): COC1[C@@H](OP(=O)(O)/C=C/[C@H]2O[C@@H](n3cnc4c(=O)[nH]c(N)nc43)C(O)[C@H]2O)[C@@H](COP(=O)(O)OP(=O)(O)OP(=O)(O)/C=C\[C@H]2O[C@@H](n3c[n+](C)c4c(=O)[nH]c(N)nc43)[C@@H](O)C2O)O[C@H]1n1cnc2c(N)ncnc21 (stereo partly shown) [Example 4]
- Yield [1]: 106 µg
- in-vitro transcription yield compared with Comparative Example 1 (in words) [1]: significantly lower than those of Comparative Example 1
- Capping rate [2]: 94.5%
- capping efficiency compared with Comparative Example 1 (in words) [2]: significantly lower than those of Comparative Example 1
- Kd [3]: 377 nM

Structure (SMILES): COC1[C@@H](OP(=O)(O)OC[C@H]2O[C@@H](n3cnc4c(=O)[nH]c(N)nc43)C(O)[C@H]2O)[C@@H](/C=C\P(=O)(O)OP(=O)(O)OP(=O)(O)/C=C\[C@H]2O[C@@H](n3c[n+](C)c4c(=O)[nH]c(N)nc43)[C@@H](O)C2O)O[C@H]1n1cnc2c(N)ncnc21 (stereo partly shown) [Example 5]
- Yield [1]: 102 µg
- in-vitro transcription yield compared with Comparative Example 1 (in words) [1]: significantly lower than those of Comparative Example 1
- Capping rate [2]: 90.2%
- capping efficiency compared with Comparative Example 1 (in words) [2]: significantly lower than those of Comparative Example 1
- Kd [3]: 395 nM

Structure (SMILES): COC1[C@@H](OP(=O)(O)/C=C/[C@H]2O[C@@H](n3cnc4c(=O)[nH]c(N)nc43)C(O)[C@H]2O)[C@@H](/C=C\P(=O)(O)OP(=O)(O)OP(=O)(O)OC[C@H]2O[C@@H](n3c[n+](C)c4c(=O)[nH]c(N)nc43)[C@@H](O)C2O)O[C@H]1n1cnc2c(N)ncnc21 (stereo partly shown) [Example 6]
- Yield [1]: 96 µg
- in-vitro transcription yield compared with Comparative Example 1 (in words) [1]: significantly lower than those of Comparative Example 1
- Capping rate [2]: 87.3%
- capping efficiency compared with Comparative Example 1 (in words) [2]: significantly lower than those of Comparative Example 1
- Kd [3]: 362 nM

Structure (SMILES): COC1[C@@H](OP(=O)(O)/C=C/[C@H]2O[C@@H](n3cnc4c(=O)[nH]c(N)nc43)C(O)[C@H]2O)[C@@H](/C=C\P(=O)(O)OP(=O)(O)OP(=O)(O)/C=C\[C@H]2O[C@@H](n3c[n+](C)c4c(=O)[nH]c(N)nc43)[C@@H](O)C2O)O[C@H]1n1cnc2c(N)ncnc21 (stereo partly shown) [Example 7]
- Yield [1]: 85 µg
- in-vitro transcription yield compared with Comparative Example 1 (in words) [1]: significantly lower than those of Comparative Example 1
- Capping rate [2]: 82.6%
- capping efficiency compared with Comparative Example 1 (in words) [2]: significantly lower than those of Comparative Example 1
- binding constant to elF4E protein compared with Comparative Example 1 (in words) ([3]; Table 5): the lowest as compared to Comparative Example 1
- Kd [3]: 1160 nM
- intracellular translation effect of mRNA compared with Comparative Example 1 (in words) [4]: the lowest as compared to Comparative Example 1
